“And” between values parts separate entries of the source, which are not always exact repeats. Equal values may be shown once. “Also recorded” adds a separate entry of the source. Read-outs that look alike come from different tables or passages of the source.
What was measured:
[1] = for Dose proportionality of mean treprostinil Cmax and AUC0-24hr: PO 1 to 50 mg/kg prodrug
[2] = Clinical signs and mortality after single oral gavage or IV bolus dose in rats; assay type: in vivo
Procedure: Animals received a single dose via oral gavage or intravenous (bolus) injection. The following parameters and end points were evaluated in this study: clinical signs and pharmacokinetic parameters. Single males in the oral 50 mg/kg prodrugs XVII and VI group were found dead on Day 2. No macroscopic findings were noted. All other animals survived to the scheduled euthanasia.
Animals were not removed from the cage during observations, unless necessary for identification or confirmation of possible findings.
The animals were removed from the cage, and a detailed clinical observation was performed on the day of animal selection. Cage side observations were performed at 1 to 2 hours post dose. Animals were weighed individually following receipt, on the day of randomization, and on each day of dosing (prior to dosing). Individual body weights are presented below.
All surviving animals were euthanized and discarded. A necropsy was conducted for animals that died on study, and specified tissues were saved.

[3] = molecular target: T1, prostaglandin I2 (PGI2) receptor (IP) (Homo sapiens, UniProt P43119); assay: IP receptor cAMP assay (agonist mode); assay type: cell-based; details: Table 20; agonist mode; NC = too inactive to realistically calculate; * partial agonists or odd dose-response curves
T1 construct: expressed in transfected cells; host or cells: CHO-K1
T1 sequence (P43119 whole entry): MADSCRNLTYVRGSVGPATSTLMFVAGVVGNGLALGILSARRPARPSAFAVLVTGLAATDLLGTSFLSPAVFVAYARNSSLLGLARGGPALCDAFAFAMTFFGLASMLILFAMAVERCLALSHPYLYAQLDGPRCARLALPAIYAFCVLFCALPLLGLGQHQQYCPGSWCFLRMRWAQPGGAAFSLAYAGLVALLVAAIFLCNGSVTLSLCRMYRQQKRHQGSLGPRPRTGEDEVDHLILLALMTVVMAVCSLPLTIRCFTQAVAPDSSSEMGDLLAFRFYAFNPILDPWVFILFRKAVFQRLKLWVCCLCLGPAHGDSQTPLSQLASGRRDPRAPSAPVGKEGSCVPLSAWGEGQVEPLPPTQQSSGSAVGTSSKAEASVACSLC
Procedure: (§2) Assay Buffer: • EP1 Calcium and DP1 cAMP Assays: HBSS plus 20 mM HEPES • EP2 and IP1 cAMP Assays: 1 mM IBMX in HBSS plus 20 mM HEPES
(§3) Cells were thawed from frozen cells and resuspended in assay buffer at desired concentrations. cAMP or Calcium assays were performed according to the manufacturer's protocol using Multiscreen™ TR-FRET cAMP 1.0 No Wash Assay Kit or Multiscreen™ Calcium 1.0 No Wash Kit.
(§4) Gas Cyclic AMP (cAMP) Assay: In agonist mode testing, cells were seeded in a 384-well plate at an appropriate density and then were treated with compounds and incubated at 37° C. for 20 minutes. The reaction was terminated by sequentially adding sequentially adding trFluor™ Eu-labeled cAMP and trFluor™ 650-labeled anti-cAMP antibody in lysis buffer. […] All testing wells contained 0.1% DMSO in the final concentrations.
(§5) Data in graphs are represented in Mean±SD. Dose-dependent responses were fitted with sigmoidal dose-response curves allowing variable slopes using GraphPad Prism version 6 (Graphpad Prism).
(§6) These studies used cell lines overexpressing either human IP, EP2 or DP1, or EP1 receptors, and following incubation with varying concentrations of compounds, cAMP levels were measured using Fluorescence Resonance Energy Transfer (FRET).

[4] = molecular target: T2, prostaglandin D2 (PGD2) receptor 1 (DP1) (Homo sapiens, UniProt Q13258); assay: DP1 receptor cAMP assay (agonist mode); assay type: cell-based
T2 construct: expressed in transfected cells; host or cells: HEK293T
T2 sequence (Q13258 1-359): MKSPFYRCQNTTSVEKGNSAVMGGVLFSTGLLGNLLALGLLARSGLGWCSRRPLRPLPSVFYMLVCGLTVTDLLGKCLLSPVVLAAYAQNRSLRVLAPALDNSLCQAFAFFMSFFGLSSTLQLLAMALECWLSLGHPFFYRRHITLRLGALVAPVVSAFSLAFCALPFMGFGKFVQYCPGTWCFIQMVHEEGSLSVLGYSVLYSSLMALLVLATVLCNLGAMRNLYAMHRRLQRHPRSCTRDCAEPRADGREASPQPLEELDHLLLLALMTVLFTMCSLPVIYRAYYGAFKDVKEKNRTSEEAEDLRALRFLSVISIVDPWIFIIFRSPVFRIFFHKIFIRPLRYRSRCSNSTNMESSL
Procedure: as §2, §3, §4, §5, §6

[5] = Stability and formation of treprostinil in dog cryopreserved hepatocytes
Procedure: (§1) Mixed-gender human cryopreserved hepatocytes, male Sprague-Dawley rat cryopreserved hepatocytes, and male Beagle dog cryopreserved hepatocytes were purchased from XenoTech. The hepatocytes were thawed and prepared according to the vendor's instructions, pooled into Krebs Henseleit buffer (KHB, pH 7.4), and kept on ice prior to the experiments. […] The final DMSO content in the incubation mixture was ≤0.1%. […] Aliquots of the test article were withdrawn (n=1) at 0, 15, 30, 60, and 120 minutes. […] Aliquots of 7-HC were withdrawn (n=1) at 0 and 15 minutes. The reaction was immediately terminated by adding two volumes of ice-cold acetonitrile (ACN) to the test article samples and three volumes of ACN containing internal standard to the positive control samples.

[6] = Stability and formation of treprostinil in rat cryopreserved hepatocytes
Procedure: as §1

[7] = Stability and formation of treprostinil in human cryopreserved hepatocytes
Procedure: as §1

[8] = parent prodrug in plasma, single IV bolus 1 mg/kg, male rats
[9] = parent prodrug in plasma, single PO 1, 10 and 50 mg/kg (all PO groups), male rats
[10] = parent prodrug in plasma, single PO or IV bolus, male rats
[11] = treprostinil in plasma, male rats
[12] = treprostinil in plasma, single IV bolus 1 mg/kg prodrug, male rats
[13] = treprostinil in plasma, single PO 10 mg/kg prodrug, male rats
[14] = single IV bolus 1 mg/kg, male Crl:CD(SD) rats
[15] = single oral 50 mg/kg, male Crl:CD(SD) rats
[16] = single oral 50 mg/kg, male Crl:CD(SD) rats, 50 mg/kg
[17] = treprostinil in plasma, single IV bolus 1 mg/kg prodrug, individual animals, male rats
[18] = male, Beagle, dog, 15 min, 100 μM, pH 7.4
[19] = male, Sprague-Dawley, rat, 15 min, 100 μM, pH 7.4
[20] = both, human, 15 min, 100 μM, pH 7.4
[21] = treprostinil in plasma, single PO 1 mg/kg prodrug, male rats

CCCCC[C@@H](CC[C@@H]1[C@H]2Cc3cccc(OCC(=O)O)c3C[C@H]2C[C@H]1O)OC(=O)OC(C)C [Prodrug XVII, treprostinil side chain isopropyl carbonate]
Prodrug plasma concentrations [1, 8]: BLQ
Prodrug plasma concentrations [1, 9]: BLQ
Prodrug plasma concentrations (BQL) [1, 10]: < 1.00 ng/mL
Dose proportionality of mean treprostinil Cmax and AUC0-24hr [1, 11]: less than dose proportional manner
Mean AUC0-12hr of treprostinil [1, 12]: 274 ng·h/mL
Mean C0 of treprostinil [1, 12]: 1350 ng/mL
Mean Cmax of treprostinil [1, 12]: 466 ng/mL
Treprostinil quantifiable up to (time postdose) [1, 13]: 24 h
Test article-related (adverse) clinical observations [2, 14]: adverse clinical observations
Test article-related (adverse) clinical observations [2, 15]: adverse clinical observations
Mortality [2, 16]: found dead; also recorded: lethality

CCCCC[C@@H](CC[C@@H]1[C@H]2Cc3cccc(OCC(=O)O)c3C[C@H]2C[C@H]1O)OC(=O)OC [Prodrug IV]
Dose proportionality of mean prodrug Cmax ([1]; parent prodrug, PO 10 to 50 mg/kg, male rats): approximately dose proportional manner
PO bioavailability (% F) of prodrug, based on mean AUCall/Dose ([1]; rat, in vivo): 1.04%
Individual AUCINF of prodrug ([1]; rat, in vivo, iv, 1 mg/kg): 41.5 to 144 ng·h/mL
Individual C0 of prodrug ([1]; rat, in vivo, iv, 1 mg/kg): 65.6 to 759 ng/mL
Individual Cl of prodrug ([1]; rat, in vivo, iv, 1 mg/kg): 115.7 to 401.67 mL/min/kg
Individual T1/2 of prodrug ([1]; rat, in vivo, iv, 1 mg/kg): 5.46 to 16.6 min
Individual Vz of prodrug ([1]; rat, in vivo, iv, 1 mg/kg): 2.69 to 3.61 L/kg
Mean AUC0-12hr of prodrug ([1]; rat, in vivo, iv, 1 mg/kg): 94.4 ng·h/mL
Mean AUCINF of prodrug ([1]; rat, in vivo, iv, 1 mg/kg): 98.7 ng·h/mL
Mean C0 of prodrug ([1]; rat, in vivo, iv, 1 mg/kg): 324 ng/mL
Mean Cl of prodrug ([1]; rat, in vivo, iv, 1 mg/kg): 223.33 mL/min/kg
Mean T1/2 of prodrug ([1]; rat, in vivo, iv, 1 mg/kg): 0.212 h
Mean Vz of prodrug ([1]; rat, in vivo, iv, 1 mg/kg): 3.15 L/kg
Prodrug quantifiable up to (time postdose) ([1]; rat, in vivo, iv, 1 mg/kg): 1 or 2 hours
Prodrug quantifiable up to (time postdose) ([1]; rat, in vivo, po, 10 mg/kg): 1 h
AUCINF of prodrug (single animal) ([1]; rat, in vivo, po, 50 mg/kg): 65.4 ng·h/mL
Cl/F of prodrug (single animal) ([1]; rat, in vivo, po, 50 mg/kg): 12733.3 mL/min/kg
Individual AUC0-24hr of prodrug ([1]; rat, in vivo, po, 50 mg/kg): 49.2 ng·h/mL
Prodrug quantifiable up to (time postdose) ([1]; rat, in vivo, po, 50 mg/kg): 1, 2, 8, or 12 hours
T1/2 of prodrug (single animal) ([1]; rat, in vivo, po, 50 mg/kg): 4.27 h
Vz/F of prodrug (single animal) ([1]; rat, in vivo, po, 50 mg/kg): 4710 L/kg
Test article-related (adverse) clinical observations ([2]; rat, in vivo, iv, 1 mg/kg): adverse clinical observations
Test article-related (adverse) clinical observations ([2]; rat, in vivo, po, 50 mg/kg): adverse clinical observations

CCCCC[C@@H](CC[C@@H]1[C@H]2Cc3cccc(OCC(=O)O)c3C[C@H]2C[C@H]1O)OC(=O)OCC [Prodrug XVI, treprostinil side chain ethyl carbonate]
Prodrug plasma concentrations [1, 8]: BLQ
Prodrug plasma concentrations [1, 9]: BLQ
Prodrug plasma concentrations (BQL) [1, 10]: < 1.00 ng/mL
Dose proportionality of mean treprostinil Cmax and AUC0-24hr [1, 11]: less than dose proportional manner
Individual AUCINF of treprostinil [1, 17]: 183 ng·h/mL
Individual Cl of treprostinil [1, 17]: 91.17 mL/min/kg
Individual Vz of treprostinil [1, 17]: 5.7 L/kg
Individual T1/2 of treprostinil ([1]; treprostinil in plasma, single IV bolus 1 mg/kg prodrug, individual animals, male rats, 1 mg/kg): 0.722 h and 1.10 h
Mean AUC0-12hr of treprostinil [1, 12]: 192 ng·h/mL
Mean C0 of treprostinil [1, 12]: 549 ng/mL
Mean Cmax of treprostinil [1, 12]: 263 ng/mL
Mean T1/2 of treprostinil [1, 12]: 0.912 h
Treprostinil quantifiable up to (time postdose) [1, 12]: 2 h
Individual AUC0-12hr of treprostinil ([1]; treprostinil in plasma, single IV bolus 1 mg/kg prodrug, male rats, 1 mg/kg): 171 ng·h/mL and 214 ng·h/mL
Treprostinil quantifiable up to (time postdose) [1, 13]: 24 h
Treprostinil quantifiable up to (time postdose) ([1]; treprostinil in plasma, single PO 50 mg/kg prodrug, male rats): 24 h
PO bioavailability (% F) of treprostinil, based on mean AUCall/Dose ([1]; PO 1 mg/kg prodrug vs IV bolus 1 mg/kg prodrug, male rats, 1 mg/kg): 5.94% and 7.74%
PO bioavailability (% F) of treprostinil, based on mean AUCall/Dose ([1]; PO 10 mg/kg prodrug vs IV bolus 1 mg/kg prodrug, male rats): 6.35% and 3.17%
PO bioavailability (% F) of treprostinil, based on mean AUCall/Dose ([1]; PO 50 mg/kg prodrug vs IV bolus 1 mg/kg prodrug, male rats): 4.13% and 3.72%
Test article-related (adverse) clinical observations [2, 14]: adverse clinical observations
Mortality [2, 15]: found dead
Test article-related (adverse) clinical observations [2, 15]: adverse clinical observations

CCCCC[C@H](O)CC[C@@H]1[C@H]2Cc3cccc(OCC(=O)O)c3C[C@H]2C[C@H]1OC [Prodrug LXIII, treprostinil cyclopentyl methyl ether]
EC50 Fold Different from Treprostinil, IP Receptor [3]: 208x
EC50 Fold Different from Treprostinil, DP1 Receptor ([4]; Table 20, agonist mode, NC = too inactive to realistically calculate, * partial agonists or odd dose-response curves): 217x*

O=c1ccc2ccc(O)cc2o1 [7-hydroxycoumarin, reference compound]
Formation Rate of 7-HC-G (glucuronide) [5, 18]: 114 pmol/min/10^6 cells
Formation Rate of 7-HC-S (sulfate) [5, 18]: 35.9 pmol/min/10^6 cells
Formation Rate of 7-HC-G (glucuronide) [6, 19]: 91.4 pmol/min/10^6 cells
Formation Rate of 7-HC-S (sulfate) [6, 19]: 24.7 pmol/min/10^6 cells
Formation Rate of 7-HC-G (glucuronide) [7, 20]: 97.7 pmol/min/10^6 cells
Formation Rate of 7-HC-S (sulfate) [7, 20]: 10.8 pmol/min/10^6 cells

CCCCC[C@@H](CC[C@@H]1[C@H]2Cc3cccc(OCC(=O)O)c3C[C@H]2C[C@H]1O)OP(=O)(O)O [Prodrug VI, treprostinil side chain phosphate]
Treprostinil Concentration, 0 min [5]: 0.0124 µM
Treprostinil Concentration, 15 min [5]: 0.581 µM
Treprostinil Concentration, 30 min [5]: 0.609 µM
Treprostinil Concentration, 60 min [5]: 0.533 µM
Treprostinil Concentration, 120 min [5]: 0.548 µM
T1/2 of prodrug (single animal) ([1]; parent prodrug, single PO 50 mg/kg, single animal, male rats): 1.76 h
Prodrug plasma concentrations ([1]; rat, in vivo, iv, 1 mg/kg): BLQ
Prodrug plasma concentrations (BQL) ([1]; rat, in vivo, iv, 1 mg/kg): < 1.00 ng/mL
Prodrug plasma concentrations ([1]; rat, in vivo, po, 1 mg/kg): BLQ
Prodrug plasma concentrations ([1]; rat, in vivo, po, 10 mg/kg): BLQ
AUCINF of prodrug (single animal) ([1]; rat, in vivo, po, 50 mg/kg): 28.2 ng·h/mL
Mean AUC0-24hr of prodrug ([1]; rat, in vivo, po, 50 mg/kg): 242 ng·h/mL
Prodrug quantifiable up to (time postdose) ([1]; rat, in vivo, po, 50 mg/kg): 2, 4, 8, or 24 hours
Mean T1/2 of treprostinil [1, 12]: 1.90 h
Mean Cl/F of treprostinil [1, 21]: 448.33 mL/min/kg
Mean T1/2 of treprostinil [1, 21]: 14.0 h
Treprostinil Concentration, 0 min [6]: 0.128 µM
Treprostinil Concentration, 15 min [6]: 0.693 µM
Treprostinil Concentration, 30 min [6]: 0.635 µM
Treprostinil Concentration, 60 min [6]: 0.564 µM
Treprostinil Concentration, 120 min [6]: 0.53 µM
Activity, DP1 Relative to Tre ([4]; Table 24, relative to treprostinil EC50 values, * partial agonists or ambiguous dose-response curves, image character = too high to realistically calculate): 2x
Test article-related (adverse) clinical observations [2, 14]: adverse clinical observations
Test article-related (adverse) clinical observations [2, 15]: adverse clinical observations
Mortality [2, 16]: found dead; also recorded: lethality
Treprostinil Concentration, 0 min [7]: 0 µM
Treprostinil Concentration, 15 min [7]: 0.223 µM
Treprostinil Concentration, 30 min [7]: 0.365 µM
Treprostinil Concentration, 60 min [7]: 0.466 µM
Treprostinil Concentration, 120 min [7]: 0.540 µM

From patent US11634443B2, “Treprostinil prodrugs” (United Therapeutics Corporation, priority 2019, dated 2023)
